One data set deals with ocular surface. The conditions noted are these: topical ocular use in humans; cited from earlier work.
Another data set has as its system Dog intraocular pressure. Briefly: Intraocular pressure in dogs by applanation pneumatonometry. Format: in vivo. As to conditions: 25 μl to the ocular surface, IOP before and at 6 hours after administration, FIG. 9. How it is done:
The compounds were prepared at the said concentrations in a vehicle comprising 0.1% polysorbate 80 and 10 mM TRIS base. Dogs were treated by administering 25 μl to the ocular surface, the contralateral eye received vehicle as a control. Intraocular pressure was measured by applanation pneumatonometry. Dog intraocular pressure was measured immediately before drug administration and at 6 hours thereafter.

The test system of the next data set is intraocular pressure. The conditions noted are these: ocular; compared with PGF2α; cited from earlier work.

SMILES strings stand for the structures.

In the case of `CCCCC[C@H](O)/C=C/[C@@H]1[C@@H](C/C=C\CCCC(=O)O)[C@@H](O)C[C@H]1O` [PGF2α, (Z)-7-[(1R,2R,3R,5S)-3,5-Dihydroxy-2-((S)-(E)-3-hydroxyoct-1-enyl)-cyclopentyl]hept-5-enoic Acid], the ocular side effects result in the data set on ocular surface is “ocular surface (conjunctival) hyperemia and foreign-body sensation”.

In the case of `CC(=O)OCC(=O)CCC/C=C\C[C@@H]1[C@@H](/C=C/[C@@H](O)CCc2ccc(Cl)s2)[C@H](OC(C)=O)C[C@@H]1O` [Example 102, Acetic Acid (Z)-8-{(1R,2R,3R,5S)-3-acetoxy-2-[(S)-(E)-5-(5-chloro-thiophen-2-yl)-3-hydroxy-pent-1-enyl]-5-hydroxy-cyclopentyl}-2-oxo-oct-6-enyl Ester], in the data set with Dog intraocular pressure, the ocular hypotensive effect entry was “pronounced ocular hypotensive effect”.

With `CCCCC[C@H](O)/C=C/[C@@H]1[C@@H](C/C=C\CCCC(=O)OC(C)C)[C@@H](O)C[C@H]1O` [isopropyl ester of PGF2α], the “hypotensive potency versus parent compound” value in the data set on intraocular pressure is recorded as “significantly greater hypotensive potency than the parent compound”. Further, the ocular side effects result in the data set on ocular surface is “ocular surface (conjunctival) hyperemia and foreign-body sensation”.

As for `CC(=O)OCC(=O)CCC/C=C\C[C@@H]1[C@@H](/C=C/[C@@H](O)CCc2ccc(Cl)s2)[C@H](O)C[C@@H]1O` [Example 101, Acetic Acid (Z)-8-{(1R,2R,3R,5S)-2-[(S)-(E)-5-(5-chloro-thiophen-2-yl)-3-hydroxy-pent-1-enyl]-3,5-dihydroxy-cyclopentyl}-2-oxo-oct-6-enyl Ester], the ocular hypotensive effect result in the data set with Dog intraocular pressure is reported as “pronounced ocular hypotensive effect”.

(Values after patent publication US6359181B1, “Cyclopentane 1-hydroxy alkyl or alkenyl-2-one or 2-hydroxy derivatives as therapeutic agents” (Allergan Sales, Inc., priority 2000, dated 2002).)
